Series [1] concerns L1-RT. Conditions: human tumor cell lines; cited from earlier work.
The subject of series [2] is hormone refractory prostate cancer. Nature of the series: FAVE follow up study: progression free survival (RECIST) and overall survival, ITT analysis. Type of series: in vivo, human. The method, then: For the exploratory analysis, following the latest recommendations of the Prostate Cancer Clinical Trials Working Group (Scher, 2008), PSA progression was defined as an increase of more than 25% over the baseline and an increase in the concentrations of PSA of at least 2 ng/ml. The clinical symptoms, the number of new bone metastasis and the global response to treatment (evaluated by the RECIST criteria) were also recorded. After three months, the global response and the overall survival were evaluated in a follow up study. This approach was followed by an interventional approach aimed to establish a causal relationship between dose and efficacy of the treatment. In this case after three months of treatment at the 600 mg/day dose, the doses of Efavirenz were progressively raised to reach 1.2 g/day. Differences in disease progression as a function of plasma Efavirenz concentrations were confirmed in the follow up study. […] Log-rank Mantel-Cox's test, the <1500 and 1500-3000 groups were cumulated for statistical analysis). […] These thirteen patients were used to constitute the dose escalation group.

The conditions of series [3]: rat, intravenous injection of 5 mg/kg; cited from earlier work.
A short description of series [4]: ESCALE study: Efavirenz plasma concentration depending on daily dose (UPLC-MS/MS). Type of series: in vivo, human. Particulars: for mean plasma concentration of Efavirenz: three patients. The text has this: The […] clinical study is a single arm, single center (Bergonie Institute), and dose escalation phase I study. Objectives of this study are to assess the safety, tolerability, and recommended dose of Efavirenz administered orally, by continuous once-daily administration in patients with solid tumors (no pancreatic cancer) and Non-Hodgkin Lymphoma (NHL) who have failed chemotherapy treatment. The scheme of the study is a dose escalation evaluated by continual reassessment method likelihood approach (O'Quickley, 1996). […] The maximal subject number assessable is 30 patients. Blood samples for the evaluation of Efavirenz plasma concentrations were taken at 14 days, 28 days after the start of Efavirenz treatment. For Efavirenz plasma concentration determination, 10 ml of blood were collected using sodium or lithium heparinate tubes. After each blood collection, the tubes of blood were centrifuged for 5 minutes at 5000 g. Plasma was collected in polypropylene tubes. The plasma tubes of each subject were packed and stored in appropriately labelled plastic frost-resistant bags and stored at -20° C. until analysis. Samples were sent to a pharmacokinetic analysis laboratory for Efavirenz concentration analysis that was performed using a validated mass-spectrometry coupled to liquid chromatography (UPLC-MS/MS) method. […] The sample was vortex-mixed for 30 sec, and then 5 mL of diethyl ether was added. After 15 min under agitation, the organic and aqueous phases were separated by centrifugation at 3000 rpm for 10 min. […] The residue was re-dissolved in 150 μL of methanol. The UPLC-MS/MS unit consisted of Waters ACQUITY UPLC® instrument coupled with an Acquity TQD® detector. Separations were performed at 40° C. on an Acquity UPLC® BEH C18 column (50*2.1 mm) at a flow rate of 0.3 mL/min. Gradient elution was performed over 2.3 minutes using a combination of acetonitrile and ammonium formate buffer (4 mM) as mobile phase. […] Calibration curves were obtained by analysis of standard solutions prepared in plasma in the range 100-10000 ng/mL and limit of quantification (LOQ) was 2.5 ng/mL.

Series [5] can be described thus: Pharmacokinetic study in rats (Balani et al 1999). Format: in vivo. Conditions: rat, intravenous injection of 5 mg/kg, converted from μM.
A short description of series [6]: FAVE study: Efavirenz plasma concentration (UPLC-MS/MS). Type of series: in vivo, human. Particulars: 600 mg/day. The text has this: Sixty-one patients were included in the study and fifty-three patients had no violation of the eligibility criteria and received Efavirenz at least once (general population). The assessment of Efavirenz plasma concentrations was an optional exploratory objective to which the patients had to expressly consent. Plasma Efavirenz concentrations at the three month time point were available for 41 patients that were used for the exploratory analysis. Blood samples for the evaluation of Efavirenz plasma concentrations were taken at three months after the start of Efavirenz treatment. For Efavirenz plasma concentration determination, 10 ml of blood were collected using sodium or lithium heparinate tubes. After each blood collection, the tubes of blood were centrifuged for 5 minutes at 5000 g. Plasma was collected in polypropylene tubes. The plasma tubes of each subject were packed and stored in appropriately labelled plastic frost-resistant bags and stored at −20° C. until analysis. Samples were sent to a pharmacokinetic analysis laboratory for Efavirenz concentration analysis that was performed using a validated mass-spectrometry coupled to liquid chromatography (UPLC-MS/MS) method. […] Calibration curves were obtained by analysis of standard solutions prepared in plasma in the range 100-10000 ng/mL and limit of quantification (LOQ) was 2.5 ng/mL.

For series [7] the following is noted: cited from earlier work.
Series [8] concerns metastatic hormone-refractory prostate cancer. Nature of the series: FAVE study: PSA progression at 3 months under Efavirenz. Type of series: in vivo, human. Particulars: 600 mg/day; for PSA progression (share of subjects): 3 months. As to the method:
For the exploratory analysis, following the latest recommendations of the Prostate Cancer Clinical Trials Working Group (Scher, 2008), PSA progression was defined as an increase of more than 25% over the baseline and an increase in the concentrations of PSA of at least 2 ng/ml. The clinical symptoms, the number of new bone metastasis and the global response to treatment (evaluated by the RECIST criteria) were also recorded. After three months, the global response and the overall survival were evaluated in a follow up study. Patients received 600 mg of Efavirenz per day and, during Efavirenz treatment, hormone therapy was maintained. […] However, it is difficult to predict precisely the efficacious dose in humans based on preclinical data. For this reason, the goal of the FAVE study was twofold: 1. […] Explore the relationship between the dose of the compound and clinical efficacy. In order to establish the minimal efficacious dose that could be effective for the treatment of prostate cancer the inventor used a correlational approach in which plasma concentrations of Efavirenz were related to treatment efficacy measured at the three month time point. Sixty-one patients were included in the study and fifty-three patients had no violation of the eligibility criteria and received Efavirenz at least once (general population). The assessment of Efavirenz plasma concentrations was an optional exploratory objective to which the patients had to expressly consent. Plasma Efavirenz concentrations at the three month time point were available for 41 patients that were used for the exploratory analysis.

Values joined by “and” are separate entries in the source; they are usually repeats but may differ in a detail not shown here. Identical values can stand only once. Like-named read-outs stand apart in the source and are kept apart here.

For `Cc1ccnc2c1NC(=O)c1cccnc1N2C1CC1` [Nevirapine], the “reverse transcriptase activity of L1-RT” value in series [1] was “able to inhibit”.
For the molecule `O=C1Nc2ccc(Cl)cc2[C@@](C#CC2CC2)(C(F)(F)F)O1` [Efavirenz], the “median progression free survival” value in series [2] (dose escalation group: up to 1200 mg/day, originally <3000 ng/ml, 13 patients) stood at 10 months; in series [2] (low (<1500 ng/ml) and intermediate (1500-3000 ng/ml) groups cumulated), 3 months; in series [2] (plasma Efavirenz 1500-3000 ng/ml group), 3 months; in series [2] (plasma Efavirenz <1500 ng/ml group) it was 3 months; in series [2] (plasma Efavirenz <3000 ng/ml, no dose escalation (600 mg/day)), 3 months; in series [2] (plasma Efavirenz >3000 ng/ml group) it was 17 months. Moreover, the maximal plasma concentration in series [3] is 5 µM; in series [5] it was 1578 ng/mL. In addition, the “mean plasma concentration of Efavirenz” value is 3712 ng/mL and > 3000 ng/mL and > 3500 ng/mL in series [4] (1800 mg/day); 7364 ng/mL and > 6500 ng/mL in series [4] (2200 mg/day). The “patients with Efavirenz plasma concentration of at least 3000 ng/ml” value in series [4] (daily dose between 1800 and 2200 mg) was 84%. Also, in series [6] (3 months, 41 patients), the “patients with Efavirenz plasma concentration of at least 1500 ng/ml” value was found to be 70%. In addition, the concentration at 3 months in series [6] (human, plasma, cancer patients) stood at 2140 ng/mL. In addition, in series [7] (600 mg/day (Marzolini, 2001)), the “subjects with plasma concentrations above 1500 ng/ml” value was 70-80%. For the same molecule, the “Efavirenz plasma concentration reached” value in series [7] (600 mg/day, patients with two loss or decrease of function CYP2B6 alleles (Rotger, 2007)) is reported as “at least 3000 ng/ml”. Moreover, the “PSA progression (share of subjects)” value in series [8] (plasma Efavirenz 1500-3000 ng/ml group, N=22) is 81.8%; in series [8] (plasma Efavirenz <1500 ng/ml group, N=12), 83.3%. Further, the “non-progressions for PSA levels at 3 months (share of patients)” value in series [8] (all treated patients, N=53) came to 28%. For the same molecule, the “patients in whom the disease continued to progress (PSA) at 3 months” value in series [8] (all treated patients, N=53) amounted to 72%.

The values are drawn from patent US9468646B2, “Increased dosage of efavirenz for the treatment of cancer” (Alienor Farma, priority 2013, dated 2016).
